Entries after “also recorded” stand apart in the source; their conditions may differ.
How the values were obtained:
human neutrophils [1] = assay: Assay for production of platelet-activating factor (assay c), A23187-challenged neutrophils; type: cell-based
Protocol: Blood was obtained from normal humans and neutrophils were isolated as described for the arachidonic acid release assay, above. The final leukocyte preparation was of greater than 95% purity and viability.
Neutrophils were suspended in PBS at concentrations of 5 to 20×10^6 cells per ml. Cells were added to test tubes and treated with the desired compounds for 5 to 10 minutes, then challenged with calcium ionophore A23187, 2 μM and 20-30 μCi of [^3 H]acetic acid (NEN-Dupont, Boston, Mass.), or the vehicle of PBS with 0.25-1 mg/ml […]. After 5 to 20 minutes, the reactions were terminated by addition of an equal volume of chloroform:methanol (1:2, v/v) to the samples and the lipids were extracted by addition of equal volumes of chloroform and distilled water. The samples were vortexed and centrifuged at high speed and the chloroform layer removed to a clean tube.
The chloroform from each tube was evaporated to dryness and the material suspended in a small volume of chloroform or chloroform:methanol (25-100 μl) and the total material spotted on a Silica TLC plate. The plates were developed in chloroform/methanol/acetic acid/water (50:25:8:4, v/v) visualized by radioscanning (Bioscan) and the product, [^3 H]PAF, was scraped and quantified by liquid scintillation spectroscopy. With this TLC system, the Rf value for a synthetic standard of PAF was approximately 0.33.

intact human neutrophils = assay: Movement of [3H]arachidonate into 1-ether-linked phospholipids in intact non-stimulated neutrophils (method e); type: cell-based; conditions: various concentrations, 2 hours, no cellular stimulation
Protocol: CoA-IT activity can also be measured in intact cells by following the movement of a pulse of [^3 H]arachidonate as it moves into the "pool 2" phospholipids (1-alkyl and 1-alkenyl phospholipids) in inflammatory cells. These specific studies were performed in intact human neutrophils, which contain CoA-IT activity and transfer arachidonate into 1-alkyl and 1-alkenyl phospholipids. To determine the effects of Compound 3 on this transfer of arachidonate, neutrophils were exposed briefly to [^3 H]arachidonic acid to allow incorporation of the label into 1-acyl phospholipids, treated with various concentrations of Compound 3 and the movement of [^3 H]arachidonate between phospholipid subclasses assessed over the subsequent 2 hours in the absence of cellular stimulation.
Measurement of the effect of CoA-IT inhibitors on the transfer of [^3 H]arachidonate into 1-ether phospholipids in non-stimulated inflammatory cells can be accomplished by general application of the following specific method. Human neutrophils were isolated and resuspended (5×10^7 /ml) in Hanks Balanced Salt Solution (HBSS; Gibco). […] The phospholipid subclasses were separated by TLC in benzene/hexane/ethyl ether (50:45:4, v/v), located by image analysis (Bioscan) and the amount of radioactivity in each class was determined by zonal scraping and liquid scintillation counting.

[2] = test system: TPA-induced inflammation in the mouse ear; assay: TPA-induced inflammation of the mouse ear (assay d): ear thickness, myeloperoxidase; type: in vivo; conditions: topical TPA
Protocol: The ability of compounds that inhibit CoA-IT to affect in vivo inflammatory responses was assessed. Inflammatory responses were induced in the mouse ear by the topical application of a pro-inflammatory agent, such as 12-0-tetradecanoylphorbol 13-acetate. This produced an edematous response, as measured by increases in ear thickness, as well as increased inflammatory cellular infiltrate, as measured by increases in myeloperoxidase activity as described in the methods.
Male Balb/c inbred mice were obtained from Charle River Breeding Laboratories (Kingston, N.Y.). Within a single experiment mice (22-25 g) were age-matched. These in vivo experiments typically involved use of 5-6 animals/group.
TPA (12-0-tetradecanoylphorbol 13-acetate) (Sigma Chemical Company) in acetone (4 μg/20 μl) was applied to the inner and outer surfaces of the left ear of BALB/c male mice. The thickness of both ears was then measured with a dial micrometer (Mitutoyo, Japan) at both 2 and 4 hours after treatment, and the data expressed as the change in thickness (10-^3 cm) between treated and untreated ears. […] After measuring the edema, the inflammed left ears were removed and stored at -70° C. until they were assayed for MPO (myeloperoxidase) activity where appropriate. […]

human neutrophils [3] = assay: Arachidonic acid release assay (assay b), A23187-challenged neutrophils; type: cell-based
Protocol: Human neutrophils were obtained in the laboratory using three different methods. One method used leukophoresis packs from normal humans and neutrophils were isolated using the histopaque-1077 technique. The blood was centrifuged at 300× g for 10 minutes. The cell pellets were resuspended in PBS composed of 137 mM NaCI, 8.8 mM Na2HPO4, 1.5 mM KH2PO4, 2.7 mM KCI (Dulbecco's Gibco Laboratories, Long Island, N.Y.) and layered over histopaque-1077 (Sigma, St. Louis, Mo.). The pellets were collected after centrifugation (300× g for 30 minutes) and washed once in PBS. The cell pellets were exposed briefly to dionized water to Iyse any erythrocytes. The remaining cells were collected by centrifugation, suspended in PBS, counted and identified after cytospinning and staining. The final leukocyte preparation was of greater than 95% purity and viability.
The second method isolated human neutrophils from fresh heparinized normal blood using the Histopaque-1077 technique. […] The remaining cells were collected by centrifugation, suspended in PBS, counted and identified after cytospinning and staining. […]
The third method isolated human neutrophils from freshly drawn heparinized normal blood using the Percoll technique. […] The neutrophils were suspended in PBS, counted and identified after cytospinning and staining. […]

[4] = test system: mouse bone marrow-derived mast cells; assay: Arachidonate content of cellular phospholipids of mast cells (method e); type: cell-based
Protocol: As treatment of intact cells blocks the movement of arachidonate into specific cellular phospholipids, it followed that prolonged treatment of inflammatory cells with CoA-IT inhibitors could deplete their large endogenous pools of arachidonate within phospholipids. To determine that CoA-IT inhibition can alter the amount of arachidonate within cellular phospholipids, mouse bone marrow-derived mast cells were treated with Compound 3 for 24 hours and the mass of arachidonate within total cellular phospholipids was determined. Compound 3 induced a concentration-dependentreduction in the total cellular arachidonate within mast cells, with greater than 75% reduction apparent at 20 μM. […]
The following is the method for assessing the ability of a compound to alter arachidonate content of cellular phospholipids, which can be generalized for any desired cell. […] The radioactive and mole quantities of arachidonate in complex lipids are determined. At this point, cellular lipid extracts are treated with KOH (0.5M) to remove fatty acids from complex lipids (phospholipids) and the quantities of arachidonate in these extracts can then be determined by various methods, including gas chromatography and mass spectrometry (Chilton [Methods Enzymol. (1990) 187, 157-166]).

CCOP(=O)(CCCCCCCn1c(-c2ccccc2)c(-c2ccccc2)n(-c2ccccc2)c1=O)OCC [Compound 3, Diethyl 7-(3-4-5-triphenyl-2-oxo-2-3-dihydroimidazol-1-yl)heptane phosphonate]
inhibition of PAF production (human neutrophils [1]): completely and in a concentration dependent fashion; also recorded: inhibition | movement of [3H]arachidonate into 1-ether-linked phospholipids, 1-alkyl PC and 1-alkenyl PE (intact human neutrophils): concentration-dependent blockade; also recorded: completely block | movement of [3H]arachidonate into 1-ether-linked phospholipids, 1-alkyl PC and 1-alkenyl PE (intact human neutrophils; listed as Example 3): concentration-dependent blockade | anti-inflammatory effect in vivo (TPA-induced mouse ear inflammation) ([2]; listed as Example 3): positive inhibition; also recorded: anti-inflammatory responses | anti-inflammatory effect in vivo (TPA-induced mouse ear inflammation) ([2]; listed as compound 3): anti-inflammatory effect | inhibition of free arachidonic acid release (human neutrophils [3]): completely and in a concentration dependent fashion; also recorded: inhibition | loss of arachidonate from all major phospholipid classes of the mast cell ([4]; 24 hours, various concentrations): concentration-dependent loss | loss in the mass of 18:0, 18:1, 18:2 from PI, PE and PC ([4]; mast cells): no loss
